Source: BindingDB's records for patent US20250195508 (University of Central Florida Research Foundation, 2025)
pIC50: −log10 of the molar value.

Target: Ephrin type-A receptor 2 (Homo sapiens, UniProt P29317)
Assay: In Vitro Biochemical Kinase Assay
Source text: In vitro biochemical kinase assays were done using recombinant human EPHA2. compounds were subjected to in vitro biochemical kinase assays done using recombinant human ephrin type-A receptor 2 (EPHA2) (expressed in insect cells) in a Z′-LYTE FRET-based kinase assay.

Chain of Ephrin type-A receptor 2 (P29317 whole entry): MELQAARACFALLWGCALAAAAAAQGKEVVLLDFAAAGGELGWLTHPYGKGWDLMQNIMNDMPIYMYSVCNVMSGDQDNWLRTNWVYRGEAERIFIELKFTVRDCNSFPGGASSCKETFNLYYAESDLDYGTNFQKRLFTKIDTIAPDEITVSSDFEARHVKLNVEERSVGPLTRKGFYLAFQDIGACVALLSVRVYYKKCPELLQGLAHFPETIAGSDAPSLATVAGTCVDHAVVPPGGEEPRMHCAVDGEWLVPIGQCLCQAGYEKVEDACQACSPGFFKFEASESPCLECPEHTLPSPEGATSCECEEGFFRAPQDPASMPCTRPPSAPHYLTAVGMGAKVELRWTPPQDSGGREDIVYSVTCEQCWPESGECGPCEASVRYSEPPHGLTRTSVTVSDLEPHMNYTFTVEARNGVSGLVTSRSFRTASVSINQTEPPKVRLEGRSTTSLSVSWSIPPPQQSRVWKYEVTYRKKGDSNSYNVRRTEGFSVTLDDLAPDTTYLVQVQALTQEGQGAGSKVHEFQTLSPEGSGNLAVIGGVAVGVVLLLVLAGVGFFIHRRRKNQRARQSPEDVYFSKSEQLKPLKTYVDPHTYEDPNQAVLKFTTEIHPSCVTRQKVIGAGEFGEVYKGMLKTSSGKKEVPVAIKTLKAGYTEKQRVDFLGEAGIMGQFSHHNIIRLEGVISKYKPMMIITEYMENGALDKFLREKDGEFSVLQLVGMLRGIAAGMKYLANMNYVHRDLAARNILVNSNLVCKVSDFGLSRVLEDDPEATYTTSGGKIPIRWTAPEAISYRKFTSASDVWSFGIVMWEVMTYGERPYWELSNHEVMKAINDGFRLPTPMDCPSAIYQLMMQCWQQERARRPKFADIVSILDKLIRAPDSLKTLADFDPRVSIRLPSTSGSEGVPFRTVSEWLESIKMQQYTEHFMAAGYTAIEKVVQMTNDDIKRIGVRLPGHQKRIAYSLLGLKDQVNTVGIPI

Row | pIC50 | Compound
1 | < 5.00 | CCN1CCN(Cc2ccc(NC(=O)c3cc(NC(=O)c4cncc(-c5cccs5)c4)cc(OC)c3)cc2C(F)(F)F)CC1 [MLS000911581]
2 | < 5.00 | CCN1CCN(Cc2ccc(NC(=O)c3cncc(NC(=O)c4cncc(-c5cccs5)c4)c3)cc2C(F)(F)F)CC1 [US20250195508, Name TL5-139]
3 | < 5.00 | CCN1CCN(Cc2ccc(NC(=O)c3ccnc(NC(=O)c4cncc(-c5cccs5)c4)c3)cc2C(F)(F)F)CC1 [US20250195508, Name TL5-145]
